According to article PMC8795197, “Safety and activity of WX-0593 (Iruplinalkib) in patients with ALK- or ROS1-rearranged advanced non-small cell lung cancer: a phase 1 dose-escalation and dose-expansion trial” (Signal Transduction and Targeted Therapy, 2022):
“Also recorded” adds a separate entry of the source.

Test system: advanced NSCLC patients with ALK or ROS1 rearrangement
Test: Phase 1 dose-expansion phase: antitumor activity (RECIST 1.1, investigators)
Format: in vivo, human
Details: for objective response rate / intracranial objective response rate: Total; for intracranial objective response rate: Baseline measurable CNS metastasis
From the text: Patients continued treatment until documented disease progression, unacceptable toxicity, withdrawal of consent, the start of a new anticancer treatment, death, loss of follow-up, or end of the study (whichever occurred first). Patients were permitted to continue treatment after progression if they were still experiencing clinical benefit, at the discretion of the investigator. Patients performed imaging evaluation at baseline, with computed tomography or magnetic resonance imaging of the chest, abdomen, pelvis, and brain. In the dose-escalation phase, the first efficacy evaluation was done after 3-week continuous administration of WX-0593 and every 6 weeks thereafter. […] AEs were assessed in all patients throughout this study and graded per the National Cancer Institute Common Terminology Criteria for Adverse Events version 4.03. In the dose-expansion phase, the primary endpoint was ORR assessed by investigators. Other key secondary endpoints included PFS, DCR, time to progression (TTP), DOR, intracranial response, and safety. Additionally, overall survival (OS) was assessed as a prespecified exploratory endpoint. ORR was defined as the proportion of patients who had best overall response, including CR or PR. PFS was calculated from the date of the first dose of WX-0593 to the date of documented disease progression or death (whichever occurred first). DCR was defined as the proportion of patients who had best overall response, including CR, PR, or SD, with a duration of at least 12 weeks. TTP was calculated from the date when the first dose of WX-0593 was given to first documented disease progression. […] OS was calculated from the date when the first dose of WX-0593 was administered to the date of death from any cause. Safety analysis was performed in the SS, which was comprised of all patients treated with one dose of WX-0593 and with safety data recorded. Efficacy analysis was performed in the FAS, which was defined as all patients treated with at least one dose of WX-0593. The PK analysis set included all patients treated with at least one dose of WX-0593 and with at least one evaluable PK sample. […] Descriptive statistics were carried out to summarize patients’ baseline characteristics and safety. […] All time-to-event data (PFS, TTP, DOR, and OS) and their corresponding 95% CIs were estimated by Kaplan–Meier methods. PK parameter analyses were done with Phoenix WinNonlin version 8.0. All other statistical analyses were conducted using SAS version 9.4.

[1] = ROS1-positive patients, 120 mg (n=3)
[2] = ROS1-positive patients, 180 mg (n=6)
[3] = ROS1-positive patients, total (n=9)
[4] = baseline measurable or non-measurable brain metastasis
[5] = baseline measurable or non-measurable brain metastasis (n = 58)
[6] = both crizotinib and other ALK TKIs
[7] = crizotinib as the only ALK TKI treatment

SMILES: COc1cc(N2CCC3(CCN(C)CC3)CC2)ccc1Nc1ncc(Cl)c(Nc2ccccc2P(C)(C)=O)n1 [WX-0593]
- DOR, median (95% CI) (ROS1-positive patients, 120 mg): NR (NR, NR)
- PFS, median (95% CI) (ROS1-positive patients, 120 mg): 2.76 (1.35, 2.76) mo
- TTP, median (95% CI) (ROS1-positive patients, 120 mg): 2.76 (1.35, 2.76) mo
- DCR (95% CI) [1]: 66.7% (9.4%, 99.2%)
- ORR (95% CI) [1]: 0 (0%, 70.8%)
- PFS, number of events (%) [1]: 3 (100%)
- TTP (mo), n (%) [1]: 3 (100%)
- DOR, median (95% CI) (ROS1-positive patients, 180 mg): NR (NR, NR)
- PFS, median (95% CI) (ROS1-positive patients, 180 mg): NR (1.35, NR)
- TTP, median (95% CI) (ROS1-positive patients, 180 mg): NR (1.35, NR)
- DCR (95% CI) [2]: 66.7% (22.3%, 95.7%)
- ORR (95% CI) [2]: 66.7% (22.3%, 95.7%)
- PFS, number of events (%) [2]: 2 (33.3%)
- TTP (mo), n (%) [2]: 2 (33.3%)
- DOR, median (95% CI) (ROS1-positive patients, total): NR (NR, NR)
- PFS, median (95% CI) (ROS1-positive patients, total): 2.76 (1.35, NR) mo
- TTP, median (95% CI) (ROS1-positive patients, total): 2.76 (1.35, NR) mo
- ORR (95% CI) [3]: 44.4%
- PFS, number of events (%) [3]: 5 (55.6%)
- TTP (mo), n (%) [3]: 5 (55.6%)
- ORR (ROS1-rearranged, crizotinib naive): 80.0%
- median PFS (ROS1 rearrangement, crizotinib-naive (n = 5)): not reached
- objective response rate (ALK-rearranged patients): 58.2% (53/91, 47.4-68.5%)
- objective response rate (ALK-rearranged patients, ALK TKI naive): 76.3% (29/38, 59.8-88.6%)
- objective response rate (ALK-rearranged patients, ALK TKI naive, chemotherapy naïve): 85.0% (17/20, 62.1-96.8%)
- objective response rate (ALK-rearranged patients, ALK TKI naive, received chemotherapy before): 66.7% (12/18, 41.0-86.7%)
- objective response rate (ALK-rearranged patients, Crizotinib and other ALK TKIs): 40.0% (2/5, 5.3-85.3%)
- objective response rate (ALK-rearranged patients, Crizotinib only): 45.7% (21/46, 30.9-61.0%)
- objective response rate (ALK-rearranged patients, Other ALK TKIs): 50.0% (1/2, 1.3-98.7%)
- objective response rate (Baseline CNS metastasis): 22.4% (13/58, 12.5-35.3%)
- objective response rate (Baseline CNS metastasis, ALK TKI naive): 25.0% (5/20, 8.7-49.1%)
- objective response rate (Baseline CNS metastasis, Crizotinib only): 21.2% (7/33, 9.0-38.9%)
- objective response rate (Baseline CNS metastasis, Radiotherapy before): 10.5% (2/19, 1.3-33.1%)
- objective response rate (Baseline CNS metastasis, Radiotherapy naïve): 28.2% (11/39, 15.0-44.9%)
- intracranial objective response rate: 46.7% (7/15, 21.3-73.4%)
- intracranial objective response rate (ALK TKI naive): 50.0% (2/4, 6.8-93.2%)
- intracranial objective response rate (Crizotinib only): 50.0% (5/10, 18.7-81.3%)
- intracranial objective response rate (Radiotherapy before): 28.6% (2/7, 3.7-71.0%)
- objective response rate (Prior ALK TKI treatment: Crizotinib and other ALK TKI): 40.0% (2/5, 5.3-85.3%)
- objective response rate (Prior ALK TKI treatment: Crizotinib only): 42.0% (21/50, 28.2-56.8%)
- objective response rate (ROS1-rearranged patients): 44.4% (4/9, 13.7-78.8%)
- objective response rate (ROS1-rearranged patients, Crizotinib naive): 80.0% (4/5, 28.4-99.5%)
- objective response rate (ROS1-rearranged patients, Received Crizotinib before): 0 (0/4, 0-60.2%)
- objective response rate (dose expansion phase, Prior ALK TKI treatment: ALK TKI naive): 76.2% (32/42, 60.5-87.9%)
- DOR, median (95% CI) (all patients, 120 mg): NR (5.52, NR)
- PFS, median (95% CI) (all patients, 120 mg): NR (6.83, NR)
- TTP, median (95% CI) (all patients, 120 mg): NR (6.87, NR)
- DCR (95% CI) (all patients, 120 mg (n=50)): 82.0% (68.6%, 91.4%)
- PFS, number of events (%) (all patients, 120 mg (n=50)): 15 (30.0%)
- DOR, median (95% CI) (all patients, 180 mg): NR (5.49, NR)
- PFS, median (95% CI) (all patients, 180 mg): NR (NR, NR)
- TTP, median (95% CI) (all patients, 180 mg): NR (NR, NR)
- DCR (95% CI) (all patients, 180 mg (n=49)): 85.7% (72.8%, 94.1%)
- PFS, number of events (%) (all patients, 180 mg (n=49)): 10 (20.4%)
- DOR, median (95% CI) (all patients, total): not reached (NR) (95% CI 5.52 months to NR); also recorded: NR (5.65, NR)
- PFS, median (95% CI) (all patients, total): not reached (95% CI 6.93 months to NR); also recorded: NR (6.93, NR)
- TTP, median (95% CI) (all patients, total): NR (6.93, NR)
- intracranial ORR (baseline measurable CNS metastasis, radiotherapy before): 28.6%
- intracranial ORR (baseline measurable CNS metastasis, radiotherapy naive): 62.5%
- intracranial ORR (baseline measurable brain metastasis): 46.7%
- intracranial ORR (baseline measurable brain metastasis, ALK TKI naive): 50%
- intracranial ORR (baseline measurable brain metastasis, crizotinib before): 50%
- intracranial ORR [4]: 22.4%
- median PFS [4]: not reached (95% CI 6.90 months to NR)
- patients with intracranial PR [5]: 7
- patients with intracranial complete remission (CR) [5]: 6
- DCR [6]: 100%
- ORR [6]: 40.0%
- median PFS [6]: not reached
- DCR [7]: 76.0%
- ORR [7]: 42.0%
- median PFS (previously only crizotinib): 6.83 months
